ChEMBL document CHEMBL1949647, “Design, synthesis and biological evaluation of peptidyl-vinylaminophosphonates as novel cysteine protease inhibitors” (Bioorg Med Chem, 2011)
Peptide text beside a SMILES is read from it. * marks the point of attachment. Cbz = O=C(OCc1ccccc1)*

What follows are molecules tested against T1, Papain (Carica papaya, UniProt P00784) (assay: Inhibition of papaya papain using BAPNA as substrate assessed as p-nitroaniline release by spectrophotometric analysis).
T1 sequence (P00784 whole entry): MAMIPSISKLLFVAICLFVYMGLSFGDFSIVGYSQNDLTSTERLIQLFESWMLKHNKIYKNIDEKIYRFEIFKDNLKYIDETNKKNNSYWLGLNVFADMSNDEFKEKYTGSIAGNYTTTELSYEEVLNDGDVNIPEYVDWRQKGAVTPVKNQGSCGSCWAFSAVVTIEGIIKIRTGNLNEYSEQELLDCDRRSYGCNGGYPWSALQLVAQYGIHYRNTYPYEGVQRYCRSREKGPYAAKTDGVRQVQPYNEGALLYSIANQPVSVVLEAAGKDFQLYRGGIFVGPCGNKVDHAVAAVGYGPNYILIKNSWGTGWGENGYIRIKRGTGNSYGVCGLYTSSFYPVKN

Structure (SMILES) | IC50
CCOP(=O)(/C=C/C(NC(=O)[C@H](Cc1ccccc1)NC(=O)OCc1ccccc1)c1ccccc1)OCC (mixture of isomers) | 30 µM
CCOP(=O)(/C=C/C(NC(=O)[C@H](Cc1ccc(O)cc1)NC(=O)OCc1ccccc1)c1ccccc1)OCC (mixture of isomers) | 54 µM
CCOP(=O)(/C=C/C(NC(=O)[C@H](Cc1c[nH]c2ccccc12)NC(=O)OCc1ccccc1)c1ccccc1)OCC (mixture of isomers) | > 200 µM
CCOP(=O)(/C=C/C(NC(=O)[C@H](CC(C)C)NC(=O)OCC1c2ccccc2-c2ccccc21)c1ccccc1)OCC (mixture of isomers) | > 200 µM
CCOP(=O)(/C=C/C(NC(=O)[C@H](CC(C)C)NC(=O)[C@H](Cc1ccccc1)NC(=O)OC(C)(C)C)c1ccccc1)OCC (mixture of isomers) | 132 µM
CCOP(=O)(/C=C/C(NC(=O)[C@H](Cc1ccccc1)NC(=O)[C@H](Cc1ccccc1)NC(=O)OC(C)(C)C)c1ccccc1)OCC (mixture of isomers) | 83 µM

Second part, the molecule after the results:

IC50 | Structure (SMILES)
> 200 µM | CCOP(=O)(/C=C/C(NC(=O)[C@H](CC(C)C)NC(=O)OCc1ccccc1)c1ccccc1)OCC (mixture of isomers)
40 µM | CCOP(=O)(/C=C/C(NC(=O)[C@H](Cc1ccccc1)NC(=O)OC(C)(C)C)c1ccccc1)OCC (mixture of isomers)
> 200 µM | CCOP(=O)(/C=C/C(NC(=O)[C@H](CC(C)C)NC(=O)OC(C)(C)C)c1ccccc1)OCC (mixture of isomers)
125 µM | CCOP(=O)(/C=C/C(NC(=O)[C@H](Cc1ccccc1)NC(=O)[C@H](Cc1ccccc1)NC(=O)OCc1ccccc1)c1ccccc1)OCC (mixture of isomers)

Each molecule was assayed against T1, Papain (assay: Inhibition of papaya papain).

Ki | Structure (SMILES)
2.3e-05 mM | CC[C@H](C)[C@H](NC(=O)[C@H](CCCNC(=N)N)NC(=O)OCc1ccccc1)C(=O)N[C@H](/C=N/NC(N)=O)Cc1ccccc1
19.6 mM | O=C(O)CNC(=O)[C@H](Cc1ccccc1)NC(=O)OCc1ccccc1 (Cbz-Phe-Gly-OH)
2.7 mM | COC(=O)CNC(=O)[C@H](Cc1ccccc1)NC(=O)OCc1ccccc1 (Cbz-Phe-Gly-OMe)
0.265 mM | CC(C)[C@H](NC(=O)[C@H](CCCNC(=N)N)NC(=O)N[C@@H](Cc1ccccc1)C(=O)O)C(=O)N[C@H](C=O)CCCNC(=N)N [ANTIPAIN]

Each molecule was assayed against Cathepsin B (Homo sapiens, UniProt P07858) (assay: Inhibition of cathepsin B).

Ki | Structure (SMILES)
0.0005 mM | CC[C@H](C)[C@H](NC(=O)[C@H](CCCNC(=N)N)NC(=O)OCc1ccccc1)C(=O)N[C@H](/C=N/NC(N)=O)Cc1ccccc1
174 mM | C[C@H](NC(=O)OCc1ccccc1)C(=O)N[C@@H](Cc1ccccc1)C(=O)OCF
5.61 mM | O=C(O)CNC(=O)[C@H](Cc1ccccc1)NC(=O)OCc1ccccc1 (Cbz-Phe-Gly-OH)
13.5 mM | COC(=O)CNC(=O)[C@H](Cc1ccccc1)NC(=O)OCc1ccccc1 (Cbz-Phe-Gly-OMe)

What follows are molecules tested against T1, Papain (assay: Inhibition of papaya papain using methyl hippurate as substrate by titrimetric method).

Ki | Structure (SMILES)
6.89 mM | COC(=O)N[C@@H](Cc1ccccc1)C(=O)NCC#N
